This note sets out measurements from patent EP4737445A1, “NOVEL SATURATED HETEROCYCLE-SUBSTITUTED HETEROARYL-CARBONOHYDRAZONOYL DICYANIDE COMPOUND AND USE THEREOF” (Korea Institute of Science and Technology, priority 2023, dated 2025).

The IC50 is the point on the concentration scale where inhibition reaches its midpoint.

The structures appear in SMILES notation. Read-outs that look alike come from different tables or passages of the source. Some results are limits rather than exact numbers.

One data set concerns the target T1, Tau (Homo sapiens, UniProt P10636).
T1 construct: BiFC fluorescent-protein fragments (two complementary halves on two tau copies); expressed in transfected cells
Kind of data set: Tau aggregation inhibition in Tau-BiFC cell model (Forskolin-induced). The format is cell-based. The method, boiled down:
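Tau-BiFC cells were co-treated with compound (1, 3, 10 µM for screening; 0.03–30 µM for IC50) and 30 µM Forskolin for 48 h. BiFC fluorescence was normalised to the Forskolin-only window for aggregation; viability came from Hoechst-stained nuclei counts relative to Forskolin-only (100%). IC50 was derived by nonlinear regression.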

The target in the next data set is T2, TDP-43 protein (Homo sapiens, UniProt Q13148).
T2 construct: BiFC fluorescent-protein fragments (two complementary halves); expressed in transfected cells
As to the kind of experiment: TDP-43 aggregation inhibition in TDP-43-BiFC cell model (Forskolin-induced). It is filed as cell-based. To be noted: for inhibition at 3 µM: read-out: TDP-43 protein aggregation inhibitory effect: Aggregation inhibitory effect (%) (@3 uM). The method, boiled down:
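Forskolin (30 µM) co-treated with compound (screen 3 and 10 µM; dose-response 0.003–10 µM) for 48 h. BiFC fluorescence normalised to Forskolin-only (100% aggregation) minus untreated; viability from Hoechst-stained nuclei count vs Forskolin-only. IC50 by nonlinear regression.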

A short description of data set [1]: Liver microsomal stability, mouse. The format is in vitro ADME. To be noted: 1 µM compound; 0.5 mg/mL microsomes; NADPH; 30 minutes at 37°C. The method, boiled down:
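Compound (1 µM) incubated with liver microsomes (0.5 mg/mL; human, dog, rat, mouse) in 0.1 M phosphate pH 7.4, 5 min preincubation at 37°C, then 30 min with NADPH-generating system. Acetonitrile quench; remaining parent quantified by LC-MS/MS.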
(In general: Microsomes from liver hold many membrane-bound enzymes, among them those of drug oxidation.)

T1 sequence (P10636 1-441 isoform P10636-8): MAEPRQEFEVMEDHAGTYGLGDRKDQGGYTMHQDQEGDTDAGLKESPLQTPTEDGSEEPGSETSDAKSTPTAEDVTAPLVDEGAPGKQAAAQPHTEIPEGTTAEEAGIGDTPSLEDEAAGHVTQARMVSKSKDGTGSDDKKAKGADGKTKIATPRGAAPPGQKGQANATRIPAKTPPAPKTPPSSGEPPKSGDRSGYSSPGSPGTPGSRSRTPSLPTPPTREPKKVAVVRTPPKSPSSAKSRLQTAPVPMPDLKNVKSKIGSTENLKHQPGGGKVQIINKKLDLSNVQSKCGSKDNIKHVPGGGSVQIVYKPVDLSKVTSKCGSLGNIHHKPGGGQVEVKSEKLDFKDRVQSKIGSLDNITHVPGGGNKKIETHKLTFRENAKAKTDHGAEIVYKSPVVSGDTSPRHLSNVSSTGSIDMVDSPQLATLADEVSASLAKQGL
T2 sequence (Q13148 whole entry, the tested form may be a part): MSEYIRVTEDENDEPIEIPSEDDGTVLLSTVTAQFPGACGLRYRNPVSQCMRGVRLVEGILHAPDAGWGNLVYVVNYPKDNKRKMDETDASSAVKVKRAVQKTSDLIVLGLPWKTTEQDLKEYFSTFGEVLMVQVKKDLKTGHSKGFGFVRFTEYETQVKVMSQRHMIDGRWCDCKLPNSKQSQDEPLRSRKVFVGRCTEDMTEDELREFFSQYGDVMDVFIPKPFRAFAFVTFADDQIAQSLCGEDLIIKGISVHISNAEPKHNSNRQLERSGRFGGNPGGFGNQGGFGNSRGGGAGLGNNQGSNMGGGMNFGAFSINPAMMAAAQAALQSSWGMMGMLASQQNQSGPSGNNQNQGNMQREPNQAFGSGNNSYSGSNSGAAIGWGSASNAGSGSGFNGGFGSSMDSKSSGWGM

For `N#CC(C#N)=NNc1ccc2nc(N3CC4CCC(C3)O4)oc2c1` [Compound 26, (2-(8-oxa-3-azabicyclo[3.2.1]octan-3-yl)benzo[d]oxazol-6-yl)carbonohydrazonoyl dicyanide], the IC50 against Tau turned out to be 10 nM; at TDP-43 protein, 248 nM. In addition, on TDP-43 protein, the inhibition at 3 µM turned out to be 94.8%. The “Mouse microsomes (% remaining)” value in data set [1] was 99 % remaining.
`N#CC(C#N)=NNc1ccc2sc(N3CCOCC3)nc2c1` [Compound 1, (2-morpholinobenzo[d]thiazol-5-yl)carbonohydrazonoyl dicyanide]: the half-inhibitory concentration (IC50) against Tau was determined as 12 nM. For the same compound, at TDP-43 protein, the inhibition at 3 µM came to 78.1%. The “Mouse microsomes (% remaining)” value in data set [1] turned out to be 49.3 % remaining.
The like results for `CC(=O)N1CCN(c2nc3ccc(NN=C(C#N)C#N)cc3o2)CC1` [Compound 31, (2-(4-acetylpiperazin-1-yl)benzo[d]oxazol-6-yl)carbonohydrazonoyl dicyanide] were, in that order, 88 nM, 41.4% and over 100 % remaining.
For the compound `N#CC(C#N)=NNc1ccc2nc(NC(=O)N3CCOCC3)sc2c1` [Compound 38, (2-(morpholine-4-carboxamido)benzo[d]thiazol-6-yl)carbonohydrazonoyl dicyanide], the IC50 at Tau (read-out: Tau aggregation inhibitory effect IC50, Tau-BiFC cell line, Forskolin 30 µM, 48 hours, 0.03-30 µM) worked out at 68 nM. On TDP-43 protein, the inhibition at 3 µM was determined as 49.6%. In addition, the “Mouse microsomes (% remaining)” value in data set [1] was 86.1 % remaining.
The compound `N#CC(C#N)=NNc1ccc2nc(N3C4CCC3COC4)oc2c1` [Compound 20, (2-(3-oxa-8-azabicyclo[3.2.1]octan-8-yl)benzo[d]oxazol-6-yl)carbonohydrazonoyl dicyanide] yielded a half-maximal inhibitory concentration (IC50) against Tau of 11 nM. In addition, at TDP-43 protein, the IC50 was found to be 140 nM and the inhibition at 3 µM is 91.7%. Also, the “Mouse microsomes (% remaining)” value in data set [1] is listed as 95.4 % remaining.
In turn, `CC1CN(c2nc3ccc(NN=C(C#N)C#N)cc3o2)CCO1` (centres unmarked) [Compound 15, (2-(2-methylmorpholino)benzo[d]oxazol-6-yl)carbonohydrazonoyl dicyanide] came in with a half-maximal inhibitory concentration (IC50) against Tau of 48 nM. Further, the inhibition at 3 µM on TDP-43 protein amounted to 97.5%. Further, the “Mouse microsomes (% remaining)” value in data set [1] was over 100 % remaining.
